From EP4737454A1, “GLP-1 RECEPTOR AGONIST, AND PREPARATION METHOD THEREFOR AND USE THEREOF” (Wayne Biotechnology Co., Ltd., priority 2023, dated 2025) come the findings set out here.

Chain of Human GLP-1R (P43220 24-463): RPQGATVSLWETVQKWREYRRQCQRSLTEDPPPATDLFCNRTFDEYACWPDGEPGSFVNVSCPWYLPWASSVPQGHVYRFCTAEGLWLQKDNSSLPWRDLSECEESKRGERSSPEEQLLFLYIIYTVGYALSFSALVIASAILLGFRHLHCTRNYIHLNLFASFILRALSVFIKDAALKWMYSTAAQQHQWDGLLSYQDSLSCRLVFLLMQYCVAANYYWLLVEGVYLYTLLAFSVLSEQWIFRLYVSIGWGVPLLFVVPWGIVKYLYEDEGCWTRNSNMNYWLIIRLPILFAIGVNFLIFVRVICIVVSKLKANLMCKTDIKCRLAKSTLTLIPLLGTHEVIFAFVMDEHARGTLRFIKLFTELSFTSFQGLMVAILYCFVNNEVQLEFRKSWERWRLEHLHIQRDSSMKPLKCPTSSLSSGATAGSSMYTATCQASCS

For this assay, the target named is Human GLP-1R (Homo sapiens, UniProt P43220). Put plainly: cAMP level determination in human GLP-1R stably transfected HEK293T cells (HTRF cAMP kit). Format: cell-based. Particulars: 37°C 30 min. The protocol:
Human GLP-1R HEK293T stably transfected cells were digested with trypsin, terminated with DMEM total (without p/s), centrifuged and washed twice with 1X Stimulation buffer, then resuspended in 1X stimulation buffer and counted. The cells were then prepared as a 1 Million/mL cell suspension in stimulation buffer. Compound powder was first prepared as a 10 mM stock solution in DMSO, then diluted to 2 mM with DMSO, and further prepared as 2X compound in 1X stimulation buffer (Cisbio kit buffer with freshly added IBMX at a final concentration of 0.5 mM). The top dose final concentration was 2000 nM, with a final DMSO concentration of 0.2%, diluted in a 1:3 gradient for 11 gradients.
According to the layout, 5 µl of compound was added to each well; Min wells contained 100 nM GLP-1, and Max wells contained 0.2% DMSO in 1X stimulation buffer. 5 µl of cell suspension was added to each well, centrifuged at 300 rpm at room temperature for 1 min, then incubated at 37°C for 30 min. 2X cAMP standards were prepared in 1X Stimulation buffer, with a top final concentration of 2.8 µM, diluted in a 1:3 gradient for 12 doses. According to the layout, 10 µl was added to each well. Finally, d2 and antibody were diluted 20-fold in 1X Detection buffer (Cisbio kit buffer), and 5 µl of each was added to each well according to the layout. After centrifugation at 300 rpm at room temperature for 1 min, the plate was incubated at room temperature for 2 hr.
Stimulation% was calculated based on Min and Max readings (665nm/615nm ratio) using the formula: 100*(ratio Max well - ratio test well)/(ratio Max well - ratio Min well). The cAMP concentration in each test well was derived from the cAMP standard curve, and the data was analyzed using GraphPad Prism 9 to plot four-parameter fit curves and calculate EC50 values using the formula: Y=Bottom + (Top-Bottom)/(1+10^((LogEC50-X)*HillSlope)). Table 1: cAMP Level Determination in Human GLP-1R Stably Transfected HEK293T Cells
As usually defined, the EC50 is the midpoint of the concentration-response curve. Higher therefore signals lower potency in that assay. For `Cc1cc(-n2nc3c(c2-n2ccn(-c4ccc(C(=O)N(C)C5CC5)c(C(F)(F)F)c4)c2=O)[C@H](C)N(C(=O)c2cc4cc([C@H]5CCOC(C)(C)C5)ccc4n2[C@@]2(c4nc(=O)o[nH]4)C[C@@H]2C)CC3)cc(C)c1F` [Compound 6], the concentration giving a half-maximal response (EC50) stood at 5.16 nM. As to `C[C@H]1c2c(nn(-c3ccc(F)c(N4CCCC4)c3)c2-n2ccn(-c3ccc4c(cnn4C)c3F)c2=O)CCN1C(=O)c1cc2cc(C3CCOC(C)(C)C3)ccc2n1[C@@]1(c2nc(=O)o[nH]2)C[C@@H]1C` (some centres unmarked) [Compound 3], the EC50 stood at 26.5 nM. As to `Cc1cc(-n2nc3c(c2-n2ccn(-c4cc(F)c(C(=O)N(C)C5CC5)c(Cl)c4F)c2=O)[C@H](C)N(C(=O)c2cc4cc(C5CCOC(C)(C)C5)ccc4n2[C@@]2(c4nc(=O)o[nH]4)C[C@@H]2C)CC3)cc(C)c1F` (some centres unmarked) [Compound 19], a half-maximal response (EC50) required 16.2 nM. In turn, `Cc1cc(-n2nc3c(c2-n2ccn(-c4ccc(C(=O)N(C)C5(C)CC5)c(C(F)(F)F)c4)c2=O)[C@H](C)N(C(=O)c2cc4cc([C@H]5CCOC(C)(C)C5)ccc4n2[C@@]2(c4nc(=O)o[nH]4)C[C@@H]2C)CC3)cc(C)c1F` [Compound 15] showed an EC50 of 7.27 nM.

Consider `Cc1cc(-n2nc3c(c2-n2ccn(-c4cccc(C(=O)N(C)C5CC5)c4)c2=O)[C@H](C)N(C(=O)c2cc4cc(C5CCOC(C)(C)C5)ccc4n2[C@@]2(c4nc(=O)o[nH]4)C[C@@H]2C)CC3)cc(C)c1F` (some centres unmarked) [Compound 45], for which the half-maximal effective concentration (EC50) worked out at 41 nM. As for `Cc1cc(-n2nc3c(c2-n2ccn(-c4ccc(C(F)(F)F)c(C(=O)N(C)C5CC5)c4)c2=O)[C@H](C)N(C(=O)c2cc4cc(C5CCOC(C)(C)C5)ccc4n2[C@@]2(c4nc(=O)o[nH]4)C[C@@H]2C)CC3)cc(C)c1F` (some centres unmarked) [Compound 37], the figure is 18.8 nM; as for `Cc1cc(-n2nc3c(c2-n2ccn(-c4ccc(N(C)C(=O)C5CC5)c(Cl)c4)c2=O)[C@H](C)N(C(=O)c2cc4cc([C@H]5CCOC(C)(C)C5)ccc4n2[C@@]2(c4noc(=O)[nH]4)C[C@@H]2C)CC3)cc(C)c1F` [Compound 70], 3.55 nM; as for `Cc1cc(-n2nc3c(c2-n2ccn(-c4ccc(C(F)(F)F)c(C#N)c4)c2=O)[C@H](C)N(C(=O)c2cc4cc(C5CCOC(C)(C)C5)ccc4n2[C@@]2(c4nc(=O)o[nH]4)C[C@@H]2C)CC3)cc(C)c1F` (some centres unmarked) [Compound 84], 9.87 nM. As for `Cc1cc(-n2nc3c(c2-n2ccn(-c4ccc(C(=O)N(C)C5(C)CC5)c(OC(F)(F)F)c4)c2=O)[C@H](C)N(C(=O)c2cc4cc(C5CCOC(C)(C)C5)ccc4n2[C@@]2(c4nc(=O)o[nH]4)C[C@@H]2C)CC3)cc(C)c1F` (some centres unmarked) [Compound 34], the figure is 7.44 nM; as for `C[C@H]1c2c(nn(-c3ccc(F)c(C4CC4)c3)c2-n2ccn(-c3ccc4c(cnn4C)c3F)c2=O)CCN1C(=O)c1cc2cc([C@@H]3CCOC(C)(C)C3)ccc2n1[C@@]1(c2nc(=O)o[nH]2)C[C@@H]1C` [Compound 1a], 35.5 nM; as for `Cc1cc(-n2nc3c(c2-n2ccn(-c4ccc(C#N)c(F)c4)c2=O)[C@H](C)N(C(=O)c2cc4cc([C@@H]5CCOC(C)(C)C5)ccc4n2[C@@]2(c4nc(=O)o[nH]4)C[C@@H]2C)CC3)cc(C)c1F` [Compound 82a], 459 nM.

`Cc1cc(-n2nc3c(c2-n2ccn(-c4ccc(C(=O)N(C)C5(C#N)CC5)c(F)c4)c2=O)[C@H](C)N(C(=O)c2cc4cc(C5CCOC(C)(C)C5)ccc4n2[C@@]2(c4nc(=O)o[nH]4)C[C@@H]2C)CC3)cc(C)c1F` (some centres unmarked) [Compound 23]: the EC50 is 13.8 nM. To `Cc1cc(-n2nc3c(c2-n2ccn(-c4ccc(C(=O)NC5CC5)cc4)c2=O)[C@H](C)N(C(=O)c2cc4cc(C5CCOC(C)(C)C5)ccc4n2[C@@]2(c4nc(=O)o[nH]4)C[C@@H]2C)CC3)cc(C)c1F` (some centres unmarked) [Compound 46] belongs 77.9 nM; to `Cc1cc(-n2nc3c(c2-n2ccn(-c4ccc(C#N)c(C)c4F)c2=O)[C@H](C)N(C(=O)c2cc4cc(C5CCOC(C)(C)C5)ccc4n2[C@@]2(c4nc(=O)o[nH]4)C[C@@H]2C)CC3)cc(C)c1F` (some centres unmarked) [Compound 96], 7.37 nM.

`Cc1cc(-n2nc3c(c2-n2ccn(-c4cc(F)c(C(=O)N(C)C5CC5)cc4F)c2=O)C(C)N(C(=O)c2cc4cc(C5CCOC(C)(C)C5)ccc4n2C2(c4nc(=O)o[nH]4)CC2C)CC3)cc(C)c1F` (centres unmarked) [Compound 26] had a concentration giving a half-maximal response (EC50) of 11.5 nM. `Cc1cc(-n2nc3c(c2-n2ccn(-c4ccc(C(=O)N(C)C5CC5)c(C(F)(F)F)c4F)c2=O)[C@H](C)N(C(=O)c2cc4cc([C@H]5CCOC(C)(C)C5)ccc4n2[C@@]2(c4nc(=O)o[nH]4)C[C@@H]2C)CC3)cc(C)c1F` [Compound 14] displayed a 50% effective concentration (EC50) of 5.61 nM. Molecule `Cc1cc(-n2nc3c(c2-n2ccn(-c4ccc(N(C)C(=O)C5(C(F)(F)F)CC5)cc4)c2=O)[C@H](C)N(C(=O)c2cc4cc(C5CCOC(C)(C)C5)ccc4n2[C@@]2(c4noc(=O)[nH]4)C[C@@H]2C)CC3)cc(C)c1F` (some centres unmarked) [Compound 69] yielded an EC50 of 10.3 nM.

`Cc1cc(-n2nc3c(c2-n2ccn(-c4ccc(N(C)C5CC5)c(C(F)(F)F)c4)c2=O)[C@H](C)N(C(=O)c2cc4cc(C5CCOC(C)(C)C5)ccc4n2[C@@]2(c4nc(=O)o[nH]4)C[C@@H]2C)CC3)cc(C)c1F` (some centres unmarked) [Compound 64]: the response was half-maximal at 29 nM (EC50). Compared with the last molecule, the EC50 is about 2.8-fold higher. `Cc1cc(-n2nc3c(c2-n2ccn(-c4ccc(C(=O)N(C)C5CC5)c(OC(F)(F)F)c4)c2=O)[C@H](C)N(C(=O)c2cc4cc([C@H]5CCOC(C)(C)C5)ccc4n2[C@@]2(c4nc(=O)o[nH]4)C[C@@H]2C)CC3)cc(C)c1F` [Compound 12] came in with a 50% effective concentration (EC50) of 9.58 nM.

Take `Cc1cc(-n2nc3c(c2-n2ccn(-c4ccc(C(=O)N(C)C5CC5)cc4)c2=O)[C@H](C)N(C(=O)c2cc4cc([C@H]5CCOC(C)(C)C5)ccc4n2[C@@]2(c4nc(=O)o[nH]4)C[C@@H]2C)CC3)cc(C)c1F` [Compound 10]: the 50% effective concentration (EC50) is 8.55 nM. Regarding `Cc1cc(-n2nc3c(c2-n2ccn(-c4ccc(N(C)C5CC5)c(Cl)c4)c2=O)[C@H](C)N(C(=O)c2cc4cc([C@@H]5CCOC(C)(C)C5)ccc4n2[C@@]2(c4noc(=O)[nH]4)C[C@@H]2C)CC3)cc(C)c1F` [Compound 67a], it took 51.4 nM to reach a half-maximal effect (EC50). Molecule `Cc1cc(-n2nc3c(c2-n2ccn(-c4ccc5c(c4)CCS5(=O)=O)c2=O)[C@H](C)N(C(=O)c2cc4cc([C@H]5CCOC(C)(C)C5)ccc4n2[C@@]2(c4nc(=O)o[nH]4)C[C@@H]2C)CC3)cc(C)c1F` [Compound 56b] came in with an EC50 of 5.59 nM. Against the preceding molecule, the EC50 is about 9.2-fold lower.

Consider `Cc1cc(-n2nc3c(c2-n2ccn(-c4ccc5c(c4)C=CS5(=O)=O)c2=O)[C@H](C)N(C(=O)c2cc4cc(C5CCOC(C)(C)C5)ccc4n2[C@@]2(c4noc(=O)[nH]4)C[C@@H]2C)CC3)cc(C)c1F` (some centres unmarked) [Compound 62], for which the EC50 was determined as 13.5 nM. On to `C[C@H]1c2c(nn(-c3ccc(F)c(C4CC4(F)F)c3)c2-n2ccn(-c3ccc4c(cnn4C)c3F)c2=O)CCN1C(=O)c1cc2cc(C3CCOC(C)(C)C3)ccc2n1[C@@]1(c2nc(=O)o[nH]2)C[C@@H]1C` (some centres unmarked) [Compound 2], for which the response was half-maximal at 56.5 nM (EC50). Against the preceding molecule, the EC50 is about 4.2-fold higher. As for `Cc1cc(-n2nc3c(c2-n2ccn(-c4ccc5c(c4)C=CS5(=O)=O)c2=O)[C@H](C)N(C(=O)c2cc4cc([C@@H]5CCOC(C)(C)C5)ccc4n2[C@@]2(c4noc(=O)[nH]4)C[C@@H]2C)CC3)cc(C)c1F` [Compound 62a], the figure is 223 nM; as for `Cc1cc(-n2nc3c(c2-n2ccn(-c4ccc(N(C)C(=O)C5CC5)cc4F)c2=O)[C@H](C)N(C(=O)c2cc4cc([C@H]5CCOC(C)(C)C5)ccc4n2[C@@]2(c4nc(=O)o[nH]4)C[C@@H]2C)CC3)cc(C)c1F` [Compound 76], 8.18 nM.
